These results are taken from US20060140858A1, “Drug pre-targeting by means of bi-specific antibodies and hapten constructs comprising a carrier peptide and the active agent(s)” (Immunomedics, Inc., priority 2002, published 2006).

The conditions of data set [1]: mouse, in vivo; cited from earlier work.
The next data set concerns GW-39. Description: in vivo. On the set-up: species or system nude mice. As to conditions: mouse. The protocol: (§1) GW-39, a CEA-producing human colon cancer cell line (See, Goldenberg, D. M. and Hansen, H. […] Female NCr nude mice Charles River Laboratories, Inc., Fredrick Md. or Taconic, Germantown, N.Y.) approximately 6 weeks of age were implanted subcutaneously with 0.2 ml of this suspension. […] At the designated times after the peptide injection, animals were anesthetized, bled by cardiac puncture, and then euthanized prior to necropsy. Tissues were removed, weighed and counted by gamma scintillation using appropriate windows for each radionuclide along with standards prepared from the injected materials. When dual isotope counting was used, appropriate backscatter correction was made. GI tissues (stomach, small intestine and large intestine were weighed and counted with their contents. Data are expressed as the percent injected dose per gram tissue (% ID/g) and the ratio of the percentages in the tumor to the normal tissues (T/NT). All values presented in the tables and figures represent the mean and standard deviation of the calculated values with the number of animals used for each study provided therein.

A further data set is described as follows: in vivo. Set-up: species or system nude mice. As to conditions: female, NCr nude, mouse, total radioactivity, % ID/g. The method, then:
as §1

A short description of data set [2]: Comparison of ^177Lu-IMP-241 and ^111In-IMP-241 pretargeting using hMN-14 × m679 F(ab′)2 bsMAb (24 h bsMAb clearance). As to conditions: female, NCr nude, mouse, iv, total radioactivity, read-out: Percent Injected Dose Per Gram; for tissue uptake at 3 h: 3 hour after peptide; for tissue uptake at 24 h: 24 hour after peptide. The data set is classed as in vivo, nude mice. The method, then: (§2) Female NCr nude mice Charles River Laboratories, Inc., Fredrick Md. or Taconic, Germantown, N.Y.) approximately 6 weeks of age were implanted subcutaneously with 0.2 ml of this suspension. Two to three weeks after implantation of tumors, animals were injected with the radiolabeled peptide alone, or for pretargeting, with the bsMAb followed 1 to 2 days later with the radiolabeled peptide. […] At the designated times after the peptide injection, animals were anesthetized, bled by cardiac puncture, and then euthanized prior to necropsy. Tissues were removed, weighed and counted by gamma scintillation using appropriate windows for each radionuclide along with standards prepared from the injected materials. When dual isotope counting was used, appropriate backscatter correction was made. GI tissues (stomach, small intestine and large intestine were weighed and counted with their contents. Data are expressed as the percent injected dose per gram tissue (% ID/g) and the ratio of the percentages in the tumor to the normal tissues (T/NT). All values presented in the tables and figures represent the mean and standard deviation of the calculated values with the number of animals used for each study provided therein.

A further data set has as its system 679 IgG. As to the kind of experiment: Binding of labeled peptide to excess 679 IgG by size exclusion HPLC. Set-up: species or system murine. The conditions noted are these: ^90Y labeled peptide. The protocol:
The ^90Y (˜400 μCi/kit) was diluted to 1 mL in deionized water and added to the lyophilized kits. The kits were heated in a boiling water bath for 15 min, the vials were cooled to room temperature and the labeled peptides were evaluated by reverse phase HPLC (HPLC conditions: Waters Nova-Pak C-18, 8×100 mm RCM column eluted at 3 mL/min with a linear gradient from 100% (0.1% TFA in H2O) to 100% (90% CH3CN, 0.1% TFA, 10% H2O)).
The ^111In (˜300 μCi/kit) was diluted to 0.5 mL in deionized water and added to the lyophilized kits. The kits were heated in a boiling water bath for 15 min, the vials were cooled and 0.5 mL of 2.56×10^−5 M In in 0.5 M acetate buffer was added and the kits were again heated in the boiling water bath for 15 min. The labeled peptide vials were cooled to room temperature and evaluated by reverse phase HPLC (HPLC conditions: Waters Nova-Pak C-18, 8×100 mm RCM column eluted at 3 mL/min with a linear gradient from 100% (0.1% TFA in H2O) to 100% (90% CH3CN, 0.1% TFA, 10% H2O)).
The mixture was centrifuged and DTPA was added to a final concentration of 3 mM. After 15 min at room temperature, the final volume was raised to 1.0 mL with 0.1 M sodium acetate, pH 6.5. The amount of unbound isotope was determined by reverse phase HPLC and ITLC developed in saturated sodium chloride solution. […]

The test system of another data set is GW-39 tumor. Description: Tumor/nontumor ratios for directly labeled ^99mTc-hMN-14 Fab′. The data set is classed as in vivo, nude mice. As to conditions: 3 h after injection. The method, then: (§3) Humanized MN-14 (hMN-14) Fab′-SH was prepared in a similar manner as described previously. ^99mTc-pertechnetate (30 mCi) was added directly to the lyophilized hMN-14-Fab′-SH (1.0 mg) and injected in animals within 30 minutes. This product had 3.0% unbound ^99mTc by ITLC and an immunoreactive fraction of 92%.
as §2

The nature of data set [3]: Immunoreactive fraction of ^99mTc-hMN-14 Fab′. The class given is binding. The protocol: as §3
For data set [4], the target named is Ac-Lys(DTPA)-Tyr-Lys(DTPA)-Lys(Tscg-Cys)-NH2 (IMP 192). As to the kind of experiment: in vivo, calculated from biodistribution in GW-39 tumor-bearing mice, 3 h after 99m-Tc-IMP-192, assuming one peptide per bsAb.
Data set [5] has the same target. Description: in vivo, calculated from biodistribution in GW-39 tumor-bearing mice, 24 h after 99m-Tc-IMP-192, assuming one peptide per bsAb.
Data set [6] shares this target. As to the kind of experiment: in vivo, calculated from biodistribution in GW-39 tumor-bearing mice, 30 min after 99m-Tc-IMP-192, assuming one peptide per bsAb.
Data set [7] has the same target. As to the kind of experiment: in vivo, calculated from biodistribution in GW-39 tumor-bearing mice, 1 h after 99m-Tc-IMP-192, assuming one peptide per bsAb.
The target in data set [8] is carcinoembryonic antigen (CEA) (UniProt P06731). As to the kind of experiment: analytical size exclusion HPLC, radioiodinated bsAb with 10-20x molar excess of CEA.
Chain of carcinoembryonic antigen (CEA) (P06731 35-685 limits assumed): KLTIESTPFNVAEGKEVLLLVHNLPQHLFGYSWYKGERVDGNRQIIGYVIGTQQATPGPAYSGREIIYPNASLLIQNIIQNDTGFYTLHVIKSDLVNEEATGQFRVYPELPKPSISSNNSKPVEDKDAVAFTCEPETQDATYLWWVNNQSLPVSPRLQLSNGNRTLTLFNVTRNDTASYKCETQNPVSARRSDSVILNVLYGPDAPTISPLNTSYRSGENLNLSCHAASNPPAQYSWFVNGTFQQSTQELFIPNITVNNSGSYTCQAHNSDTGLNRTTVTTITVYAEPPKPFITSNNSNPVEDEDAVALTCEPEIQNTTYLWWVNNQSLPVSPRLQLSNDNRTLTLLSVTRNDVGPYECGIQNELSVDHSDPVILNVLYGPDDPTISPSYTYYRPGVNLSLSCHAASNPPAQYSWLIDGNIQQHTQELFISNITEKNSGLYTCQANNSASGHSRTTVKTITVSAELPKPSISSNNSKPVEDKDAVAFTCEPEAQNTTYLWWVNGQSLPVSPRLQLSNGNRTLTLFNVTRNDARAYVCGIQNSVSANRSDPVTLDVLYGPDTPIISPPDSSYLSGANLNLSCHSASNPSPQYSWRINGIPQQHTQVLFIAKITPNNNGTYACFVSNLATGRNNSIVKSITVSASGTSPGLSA
The next data set has as its system hMN-14 Fab′×734 Fab′. As to the kind of experiment: HPLC complexation of In-111 carboxylesterase-DTPA with bi-specific antibody. As to conditions: 20-fold molar excess of hMN-14 Fab′×734 Fab′. The data set is classed as binding. The protocol: (§4) After 1 hour of incubation, the mixture is pre-purified on two 5-mL spin-columns (Sephadex G50/80 in 0.1 M sodium phosphate pH 7.3) to remove excess reagent and DMSO. The eluate is purified on a TSK 3000G Supelco column using 0.2 M sodium phosphate pH 6.8 at 4 ml/min. The fraction containing conjugate is concentrated on a Centricon-10™ concentrator, and buffer-exchanged with 0.1 M sodium acetate pH 6.5. […] Incorporation by HPLC and ITLC analyses is 97.7%.

The nature of data set [9]: Enzymatic analysis of carboxylesterase-DTPA conjugate. The data set is classed as biochemical, rabbit. The method, then: as §4

Where two headings read alike, the source gives them in different places. *1 amine or outer side, *2 acyl side, *3 side chain or, on linkers, in order; H or OH if unused. Where a SMILES comes first, the peptide text is derived from it. Side-chain parts run from the residue outwards. [ ]: non-standard residue; d: D form. The star is where a group is joined. HSG = histamine succinyl glycyl group, O=C(CCC(=O)NCC(=O)*)NCCc1c[nH]cn1; DOTA = O=C(O)CN1CCN(CC(=O)O)CCN(CC(=O)*)CCN(CC(=O)O)CC1; NH(2-(imidazol-4-yl)ethyl) = c1ncc(CCN*)[nH]1; Suc = O=C(CCC(=O)[*:2])[*:1]

Regarding `COc1cccc2c1C(=O)c1c(O)c3c(c(O)c1C2=O)C[C@@](O)(C(=O)CO)C[C@@H]3O[C@H]1C[C@H](N)[C@H](O)[C@H](C)O1` [Doxorubicin], in data set [1], the hepatobiliary clearance was roughly 95%.

Regarding `NC(=O)[C@H](CCCCNC(=O)CNC(=O)CCC(=O)NCCc1cnc[nH]1)NC(=O)[C@@H](Cc1ccc(O)cc1)NC(=O)[C@H](CCCCNC(=O)CNC(=O)CCC(=O)NCCc1cnc[nH]1)NC(=O)[C@H](Cc1ccccc1)NC(=O)CN1CCN(CC(=O)O)CCN(CC(=O)O)CCN(CC(=O)O)CC1` [^177Lu-IMP-241, metal not drawn] ({DOTA}-FK([Gly-Suc-NH(2-(imidazol-4-yl)ethyl)])[dY]K([Gly-Suc-NH(2-(imidazol-4-yl)ethyl)])-NH2), the “decrease in kidneys compared to the level seen at 24 h” value with GW-39 is given as roughly 45%. Besides, in the data set “in vivo”, the tissue uptake at 48 h was determined as 0.94 ± 0.2 %ID/g. Moreover, the tissue uptake at 3 h stood at 1.48 ± 0.19 %ID/g in data set [2] (blood, Blood); 3.61 ± 0.43 %ID/g in [2] (kidney, Kidney); 0.46 ± 0.08 %ID/g in data set [2] (liver, Liver); 0.64 ± 0.12 %ID/g in data set [2] (lungs, Lungs); 0.36 ± 0.04 %ID/g in data set [2] (spleen, Spleen); 9.71 ± 2.49 %ID/g in data set [2] (tumor, Tumor). Besides, the tissue uptake at 24 h in data set [2] (blood, Blood) was determined as 0.36 ± 0.05 %ID/g; in data set [2] (kidney, Kidney), 0.18 ± 0.03 %ID/g; in [2] (liver, Liver) it was 0.17 ± 0.04 %ID/g; in data set [2] (lungs, Lungs) it was 0.17 ± 0.02 %ID/g; in [2] (spleen, Spleen) it was 0.29 ± 0.07 %ID/g; in data set [2] (tumor, Tumor), 2.59 ± 0.3 %ID/g.

For “^90Y-IMP-241: IMP 241 divalent HSG-DOTA peptide radiolabeled with ^90Y ({DOTA}-FK(HSG)YK(HSG)-NH2; not fully specified (residue 3); also: DOTA loaded with 90Y)”, the “binding to excess 679 IgG by size exclusion HPLC” value in the data set on 679 IgG was “binding to the antibody”.

For “^99mTc-hMN-14 Fab′: humanized MN-14 anti-CEA Fab′ directly radiolabeled with ^99mTc”, the Tumor/nontumor ratio in the data set on GW-39 tumor (Blood) turned out to be 1.0 ± 0.01; in the data set with GW-39 tumor (Kidney) it was 0.02 ± 0.001; in the data set on GW-39 tumor (Liver), 0.2 ± 0.02; with GW-39 tumor (Lungs), 0.7 ± 0.1; with GW-39 tumor (Spleen), 0.9 ± 0.4. Besides, in data set [3], the immunoreactive fraction is 92%.

As to “hMN-14 × 734 (Fab × Fab) bi-specific antibody (bispecific antibody)”, the % saturation of the available DTPA binding sites on the tumor bound bsAb in data set [4] was 25%; in data set [5], 28%; in data set [6], 25.4%; in [7] it was 25.8%. Further, the percent bound in data set [8] came out at 90%.

B1: Carboxylesterase-DTPA (conjugate)
chain: HPSAPPVVDTVHGKVLGKFVSLEGFAQPVAVFLGVPFAKPPLGSLRFAPPQPAESWSHVKNTTSYPPMCSQDAVSGHMLSELFTNRKENIPLKFSEDCLYLNIYTPADLTKRGRLPVMVWIHGGGLMVGGASTYDGLALSAHENVVVVTIQYRLGIWGFFSTGDEHSRGNWGHLDQVAALRWVQDNIANFGGDPGSVTIFGESAGGQSVSILLLSPLTKNLFHRAISESGVALLSSLFRKNTKSLAEKIAIEAGCKTTTSAVMVHCLRQKTEEELMEVTLKMKFMALDLVGDPKENTAFLTTVIDGVLLPKAPAEILAEKKYNMLPYMVGINQQEFGWIIPMQMLGYPLSEGKLDQKTATELLWKSYPIVNVSKELTPVATEKYLGGTDDPVKKKDLFLDMLADLLFGVPSVNVARHHRDAGAPTYMYEYRYRPSFSSDMRPKTVIGDHGDEIFSVLGAPFLKEGATEEEIKLSKMVMKYWANFARNGNPNGEGLPQWPAYDYKEGYLQIGATTQAAQKLKDKEVAFWTELWAKEAARPRETEHIEL
For the molecule B1, in the data set with hMN-14 Fab′×734 Fab′, the “complexation with bi-specific antibody (HPLC)” value is reported as “completely complexed”. The enzymatic activity in [9] is 115 enzyme units/mg protein.
